Assay results from paper PMC6286870 (European journal of pharmaceutics and biopharmaceutics : …, 2018).
Entries after “also recorded” stand apart in the source; their conditions may differ.

Assays:
[1] = system: HIV-1 IIIB; test: HIV-1 entry inhibition assay in TZM-bl reporter cells, X4 strain; format: cell-based
[2] = biological target: T1, CXCR4 (Homo sapiens, UniProt P61073); test: Inhibition of CXCR4 mAb-binding to TZM-bl cells; details: serial dilutions in 1 μg/ml CXCR4 mAb, fixed TZM-bl cells, 40 min on ice
T1 sequence (P61073 whole entry): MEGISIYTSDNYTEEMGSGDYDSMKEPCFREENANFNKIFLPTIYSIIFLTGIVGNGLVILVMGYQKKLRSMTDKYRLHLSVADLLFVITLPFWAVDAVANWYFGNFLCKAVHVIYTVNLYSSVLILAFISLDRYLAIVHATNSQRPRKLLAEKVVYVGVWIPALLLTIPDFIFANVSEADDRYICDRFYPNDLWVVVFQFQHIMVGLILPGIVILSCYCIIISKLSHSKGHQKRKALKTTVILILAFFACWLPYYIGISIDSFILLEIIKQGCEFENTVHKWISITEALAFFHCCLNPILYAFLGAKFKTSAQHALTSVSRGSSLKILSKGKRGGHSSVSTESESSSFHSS

[3] = biological target: T1, CXCR4; test: cell-based; details: TZM-bl, read-out: Inhibition of cell-associated 4DV3-Biot

## c1cc(CN2CCCNCCNCCCNCC2)ccc1CN1CCCNCCNCCCNCC1 [AMD3100, bicyclam JM-2987]
[1]; Human immunodeficiency virus 1, IIIB, TZM-bl, read-out: IC50 of HIV-1 entry inhibition, X4 strain HIV-1 IIIB
  IC50: 0.415 nM
[1]; more potent than 4DV3-FITC, ratio of IC50, TZM-bl cells
  Potency of HIV-1 IIIB entry inhibition relative to 4DV3-FITC: 1000 fold
[2]
  Inhibition of CXCR4 mAb clone 44708 binding to TZM-bl cells, in words: poor ability to inhibit mAb binding; also recorded: ineffective at the tested concentrations
[3]
  inhibition at 20 µM: 31%
  inhibition at 200 µM: 47%
